Key:
Assay type in all cases: cell-based, human
[1] = system: T cell cultures reactive with Der p I from house dust mite-allergic subjects; assay: secondary T cell proliferation assay, Group I (Der p I) overlapping and candidate/unique peptides; percent of T cell reactivity; conditions: patient 1733; highest S.I. ≥2.0 recorded
Text: To determine whether a peptide (candidate peptide) or a combination of candidate peptides are likely to comprise a sufficient percentage of the T cell reactivity of house dust mite protein allergens, to induce T cell nonresponsiveness in a substantial percentage of a population of individuals sensitive to house dust mite allergen, an algorithm can be used. In accordance with one such algorithm, a set of overlapping peptides is produced by systematically dividing the protein allergen(s) of interest into al least two overlapping peptide regions of desired lengths (e.g., of about 12-30 amino acid residues in length, preferably not longer than about 25 amino acid residues in length with about 5-15 amino acid residues of overlap). This division into peptide regions can be arbitrary, can be made according to an algorithm, or can be wholly or partially based on regions of house dust mite Group I and/or Group II protein allergens known to comprise at least one T cell epitope. Preferably, at least 50% of the entire house dust mite protein allergen sequence and more preferably, the entire house dust mite protein allergen sequence is divided into two or more peptides. A human T cell stimulation index is determined for each of the peptides in an in vitro T cell proliferation assay as described herein for each individual tested in a population of individuals sensitive to the protein antigen. For example both WO93/08279 and WO94/24281 disclose T cell studies with overlapping peptides derived from Der p I, Der p II, Der f I and Der f II. A candidate peptide or combination of candidate peptides is selected based, at least in part, on the mean human T cell stimulation index of the candidate peptide in the set of peptides tested and the positivity index of the candidate peptide in the set of peptides tested (see, FIGS. 3 and 4). The human T cell stimulation index for the candidate peptide(s) is summed. For each individual, the human T cell stimulation index for the candidate peptide(s) is divided by the sum of the human T cells stimulation indices of the remaining peptides in the set of peptides tested to determine a percent of T cell reactivity as shown below:
Alternatively, the presence of T cell epitopes in the candidate peptide dependent on amino acids residues in an overlapping peptide located at either the N-terminus or C-terminus of the candidate peptide in the amino acid sequence of the protein antigen, but which epitopes are not present in the candidate peptide can be considered in calculating the percent of T cell reactivity in the candidate peptide by use of the following formula: [formula]
In this formula, "NT flanking peptide" refers to a peptide which comprises amino acid residues which overlap with amino acid residues located at the N-terminus of the candidate peptide in the amino acid sequence of the protein antigen from which the peptide is derived; "CT flanking peptide" refers to a peptide which comprises amino acid residues which overlap with amino acid residues located a the C-terminus of the candidate peptide in the amino acid sequence of the protein antigen from which the peptide is derived. In this calculation stimulation indices for the candidate peptide, the N-terminal flanking peptide and the C-terminal flanking peptide are added and divided by the sum total of the stimulation indices for the entire set of overlapping peptides obtain a percent of T cell reactivity for the candidate peptide. If a combination of two or more candidate peptides is selected each of which contains amino acid residues which overlap, this calculation cannot be used to determine a percent of T cell reactivity for each candidate peptide separately. However, a total percent of T cell reactivity for the combination of candidate peptides can be obtained. In this situation, the stimulation indices for all of the candidate peptides which overlap is included in the calculation. […]

[2] = system: T cell lines primed in vitro to Der p I; assay: secondary proliferation of Der p I-primed T cell lines (Examples V, VII, XI); conditions: for T cell reactivity: overlapping Der p I peptides
How it was run: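 PBMC were primed with native or recombinant Der p I (10 or 20 μg/ml) for 7 days, then expanded with IL-2 and IL-4. Resting T cells (2×10^4) were cultured 3 days with irradiated autologous EBV-B cells or PBMC and titrated protein or peptides, then pulsed 16 h with 1 μCi ³H-thymidine. S.I. was peak-response CPM over medium-only CPM, with S.I. ≥2.0 scored positive.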

[3] = system: T cell lines primed in vitro to Der f I; assay: secondary proliferation of Der f I-primed T cell lines (Examples VI, VII, XI); conditions: Der f I primed; 8 positive experiments; FIG. 8
How it was run: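 PBMC from house dust mite-allergic patients were primed in vitro with recombinant or affinity-purified Der f I at 20 μg/ml (or 10 μg/ml), then rechallenged with Der f I peptides. Antigen-presenting cells were x-irradiated autologous PBMC (3500 Rads) or EBV-transformed B cells (25,000 Rads). Read-out was T cell proliferation.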

[4] = system: T cell lines primed in vitro to Der p II; assay: secondary proliferation of Der p II-primed T cell lines (Examples VIII, X, XI)
How it was run: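 PBMC from house dust mite-allergic patients primed in vitro with native or recombinant Der p II at 20 μg/ml (or recombinant at 3 μg/ml), with x-irradiated (3500 Rads) autologous PBMC as antigen-presenting cells. Lines then challenged with Der p II-derived peptides; proliferation expressed as S.I., ranked sum scoring top three responses 3, 2, 1.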

[5] = system: PBMC from mite-allergic patient; assay: primary T cell (PBMC) proliferation, mite-allergic patient, tritiated thymidine; conditions: medium 1071 ± 30
Procedure: Peripheral blood mononuclear cells (PBMC) were purified by Ficoll-Hypaque centrifugation of a peripheral blood specimen from mite-allergic patient and were assayed for proliferation in response to various antigens, i.e., affinity-purified Der p I, affinity purified Der p II, various Der p I and Der p II peptides. For assay, 5×10^4 PBMC were cultured in triplicate microwells for 7 days at 37° C. in the presence of various concentrations of antigen in 200 μl RPMI-1640 containing 5% human AB serum. Each well then received 1 μCi tritiated thymidine for 16 hours. The counts incorporated were collected onto glass fiber filters and processed for liquid scintillation counting. […] The CPM +/- standard deviation are shown. The stimulation index of each response (S.I.) is the ratio of the ^3 H-thymidine CPM incorporated by the cells in response to antigen divided by the ^3 H-thymidine CPM incorporated by cells in medium only. […] Thus, these peptides contain Der p I or Der p II T cell epitopes recognized by T cells from this particular allergic patient.

[6] = system: T cell lines primed in vitro to Der f II; assay: secondary proliferation of Der f II-primed T cell lines (Examples IX, X, XI)
Procedure: Experiments similar to those of Example V were performed to determine the T cell-reactive areas of the Der f II protein. For example, PBMC from house dust mite-allergic patient 384 were stimulated in vitro with purified recombinant Der f II and the T cell line was then challenged in the presence of x-irradiated (25,000 Rads) autologous Epstein-Barr virus transformed B cells as antigen presenting cells with various overlapping […]. The results of this proliferation assay indicate that T cells from this particular patient respond well to peptides DF II-1, DF II-2, DF II-3.1, DF II-4.5, DF II-15, DF II-16, and DF I-19.1 (data not shown).
The above procedure was followed with 10 patients, except in individual cases, T cell lines were primed by stimulating the patient PBMC with 20 μg/ml or 3 μg/ml purified native Der f II, and were assayed in the presence of x-irradiated (3500 Rads) autologous PBMC as antigen-presentingcells.
A study similar to that described in Example VII was carried out to determine the T cell cross-reactivity of the Der p II and Der f II proteins. T cells primed with the Der f II protein were challenged with various Der f II peptides and a set of substantially matching Der p II peptides. […]

[7] = system: T cell lines primed in vitro with Der p II; assay: T cell proliferation with fine map and modified Group II peptides (Example XIV); conditions: FIGS. 32a-b
Procedure: Long term T cell lines were established by stimulation of 2×10^6 PBL/ml in bulk cultures of complete medium (RPMI-1640, 2 mM L-glutamine, 100 U/ml penicillin/streptomycin, 5×10^-5 M 2-mercaptoethanol, and 10 mM HEPES supplemented with 5% heat inactivated human AB serum) with 30 μg/ml of purified native Der p I or Der p II for 5-6 days at 37° C. in a humidified 5% CO2 incubator to select for house dust mite protein allergen reactive T cells. This amount of priming antigen was determined to be optimal for the activation of T cells from house dust mite allergic patients. Viable cells were purified by LSM centrifugation and cultured in complete medium supplemented with 5 units recombinant human IL-2/ml and 5 units recombinant human IL-4/ml for up to three weeks until the cells no longer responded to lymphokines and were considered "rested". The ability of the T cells to proliferate to selected peptides, purified Der p I or Der p II, or positive (PHA) controls or negative controls (medium only) was then assessed. For assay, 2×10^4 rested cells were restimulated in the presence of 2×10^4 autologous Epstein-Barr virus (EBV)-transformed B cells (prepared as described below) (gamma-irradiated with 25,000 RADS) or with 5×10^4 autologous PBMs (gamma-irradiated with 3500 RADS), with 2-50 μg/ml of purified native Der p I or Der p II in a volume of 200 μl complete medium in duplicate or triplicate wells in 96-well round bottom plates for 3 days. Each well then received 1 μCi tritiated thymidine for 16-20 hours. The counts incorporated were collected onto glass fiber filter mats and processed for liquid scintillation counting. […] The titrations were used to optimize the dose of peptides in T cell assays.
The maximum response in a titration of each peptide is expressed as the stimulation index (S.I.). The S.I. is the counts per minute (CPM) incorporated by cells in response to peptide, divided by the CPM incorporated by cells in medium only. […] The positive results were used in calculating mean stimulation indices for each peptide for the individual patient tested.
The above procedure was followed with 18 patients in the studies using peptides derived from Der p I and Der f I (FIGS. 31a-b), and 21 patients in the studies with Der p II peptides (FIGS. 32a-b). Individual patient results were used in calculating the mean S.I. for each peptide if the patient responded to the Der p I or Der p II protein at an S.I. of 2.0 or greater and the patient responded to at least one peptide derived from a house dust mite allergen at an S.I. f 2.0 or greater. A summary of positive experiments from the patients tested is shown in FIGS. 32a and 32b and FIGS. 33a and 33b. The bars represent the positivity index. […] In parenthesis above each bar are the mean stimulation indices for each peptide or protein for the group of patients tested.
Autologous EBV-transformed cell lines were γ-irradiated with 25,000 Rad and used as antigen presenting cells in secondary proliferation assays and secondary bulk stimulations. These EBV-transformed cell lines were made by incubating 5×10^6 PBL with 1 ml of B-59/8 Marmoset cell line (ATCC CRL1612, American Type Culture Collection, Rockville, Md.) conditioned medium in the presence of 1 μg/ml phorbol 12-myristate 13-acetate (PMA) at 37° C. for 60 minutes in 12×75 mm polypropylene round-bottom Falcon snap cap tubes (Becton Dickinson Labware, Lincoln Park, N.J.). These cells were then diluted to 1.25×10^6 cells/ml in RPMI-1640 as described above except supplemented with 10% heat-inactivated fetal bovine serum and cultured in 200 μl aliquots in flat bottom culture plates until visible colonies were detected. They were then transferred to larger wells until the cell lines were established.

## DP I-22.2: Der p I peptide (VAATESAYLAHRNQSLDLAEQELVD)
[1]
  T cell stimulation index (S.I.): 3.1
[2]; 33 positive experiments, FIG. 13
  T cell response to selected Der p I peptides: respond significantly

## DP I-6.1: Der p I peptide (YPPNANKIREALAQTHSAIAVIIG)
[1]
  T cell stimulation index (S.I.): 2.1
[2]; 33 positive experiments
  T cell reactivity: significant regions of T cell reactivity

## DP I-7.1: Der p I peptide (AQTHSAIAVIIGIKDLDAFRHYDGRT)
[1]
  T cell stimulation index (S.I.): 2.2
[2]; 33 positive experiments
  T cell reactivity: significant regions of T cell reactivity

## DP I-15: Der p I peptide (RFGISNYCQIYPPNANKIREAL)
[1]
  T cell stimulation index (S.I.): 2.8
[3]
  T cell response to Der p I peptides: respond significantly

## DP II-4: Der p II peptide (QLEAVFEANQNTKTAKIEIKASIDG)
[4]; Der p II T-cell map and analogs
  T-cell reactivity (DPII-22 series development): high T-cell reactivity
[4]; overlapping Der p II peptides, 26 positive experiments, FIG. 9
  T cell reactivity: significant T cell reactivity
[5]; 10 μg/ml
  CPM ± S.D.: 2126 ± 25 CPM
[5]; 30 μg/ml
  CPM ± S.D.: 1979 ± 94 CPM
[5]; 100 μg/ml
  CPM ± S.D.: 2314 ± 116 CPM
[6]; Der f II primed, 10 positive experiments, FIG. 11
  T cell response to Der p II peptides: respond significantly

## DP II-25: Der p II peptide (TVKVMGDDGVLACAIATHAKIRD)
[7]
  T cell response, Group II peptides: positive T cell studies
[6]; 10 patients, FIG. 18a
  stimulation index / response to selected Der p II peptides: highest stimulation index

## DP I-12.1: Der p I peptide, native sequence (ELVDCASQHGCHGDTIPRGIE)
[1]
  T cell stimulation index (S.I.): 2.2
[2]; DP I-11/12 vs DP I-11.1/12.1
  difference in mean S.I. or percentage of positive responses, original vs additional (native sequence) peptides: no significant difference

## DP I-16: Der p I peptide (HAVNIVGYSNAQGVDYWIVRNS)
[1]
  T cell stimulation index (S.I.): 2.0
[2]; 33 positive experiments
  T cell reactivity: significant regions of T cell reactivity

## DP I-9: Der p I peptide (IIQRDNGYQPNYHAVNIVGYSNA)
[1]
  T cell stimulation index (S.I.): 2.4
[2]; 33 positive experiments
  T cell reactivity: significant regions of T cell reactivity

## DP I-17: Der p I peptide (GDNGYGYFAANIDLMMIEEYPYVVIL)
[1]
  T cell stimulation index (S.I.): 0

## DF II-15: Der f II peptide (KIEIKASLDGLEIDVPGIDTNACHFMK)
[4]; Der p II primed, 26 positive experiments, FIG. 12
  T cell response to Der f II peptides: respond significantly
[6]; overlapping Der f II peptides, 10 positive experiments, FIG. 10
  T cell reactivity: significant areas of T cell reactivity
[6]; patient 384, recombinant Der f II primed, data not shown
  T cell response: respond well

Source: patent US5968526A, “T cell epitopes of the major allergens from Dermatophagoides (house dust mite)” (Immulogic Pharamaceutical Corporation, priority 1995, dated 1999)
